Experimental data taken from PubChem BioAssay (NCI).
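The compound was tested at five concentrations on cells cultured in 96-well plates, with a 48-hour exposure period. GI50 is the concentration that inhibits growth by half. TGI denotes the concentration required for complete inhibition of growth.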

Columns and labels:
Assay in all cases: inhibition of tumour cell growth, NCI panel, 48 h
ACHN renal = test system: ACHN renal
HT29 colon = test system: HT29 colon
KM12 colon = test system: KM12 colon
OVCAR-4 ovarian = test system: OVCAR-4 ovarian
RPMI-8226 leukemia = test system: RPMI-8226 leukemia
SF-295 CNS = test system: SF-295 CNS
U251 CNS = test system: U251 CNS
MCF7 breast = test system: MCF7 breast
PC-3 prostate = test system: PC-3 prostate
DU-145 prostate = test system: DU-145 prostate

Compound | TGI (ACHN renal) [µM] | TGI (HT29 colon) [µM] | TGI (KM12 colon) [µM] | TGI (OVCAR-4 ovarian) [µM] | TGI (RPMI-8226 leukemia) [µM] | TGI (SF-295 CNS) [µM] | TGI (U251 CNS) [µM] | GI50 (ACHN renal) [µM] | GI50 (HT29 colon) [µM] | GI50 (KM12 colon) [µM] | GI50 (MCF7 breast) [µM] | TGI (MCF7 breast) [µM] | GI50 (PC-3 prostate) [nM] | TGI (PC-3 prostate) [µM] | GI50 (RPMI-8226 leukemia) [µM] | GI50 (SF-295 CNS) [µM] | GI50 (U251 CNS) [µM] | GI50 (OVCAR-4 ovarian) [nM] | GI50 (DU-145 prostate) [nM] | TGI (DU-145 prostate) [µM]
O=C(CC(=O)C1CCOC1=O)C(=O)Nc1cccc(Cl)c1 (stereo not given) | > 100 | > 100 | > 100 | > 100 | > 100 | > 100 | > 100 | – | – | – | – | – | – | – | – | – | – | – | – | –
COc1cc2c(/C=N\N=C(N)N)c[nH]c2cc1C | > 100 | 37.1 | 28 | – | 27.4 | 43.4 | 27.3 | 24.3 | 18 | 14.9 | 13 | 25.7 | 14300 | 27.4 | 14.3 | 15.4 | 13.2 | – | – | –
CCN1c2ccccc2-c2c3c1cc(C)cc3c1ccccc1[n+]2CC | 8.95 | 3.92 | 1.41 | 5.57 | 2.92 | 3.21 | 2.68 | – | – | – | – | – | – | – | – | – | – | – | – | –
Cn1c(=O)nc2n(-c3cc(C(F)(F)F)cc(C(F)(F)F)c3)c3ccccc3nc-2c1=O | > 100 | > 100 | > 100 | > 100 | > 100 | > 100 | > 100 | – | – | – | – | – | – | – | – | – | – | – | – | –
CN(C(=O)c1ccc([N+](=O)[O-])cc1)c1ccccc1 | > 100 | > 100 | > 100 | > 100 | > 100 | > 100 | > 100 | – | – | – | – | – | – | – | – | – | – | – | – | –
COC(=O)C(=O)C(C(C)=O)C(=O)NCc1ccc(OC)c(OC)c1 (stereo not given) | > 100 | > 100 | > 100 | > 100 | – | > 100 | > 100 | – | – | – | – | – | – | – | – | – | – | – | – | –
O=c1[nH]cnc(NC2C=C(CO)C(O)C2O)c1[N+](=O)[O-] (stereo not given) | > 100 | > 100 | > 100 | > 100 | > 71.3 | > 100 | > 100 | – | – | – | – | – | – | – | – | – | – | – | – | –
CC(C)(C)c1ccc2c(c1)S(=O)(=O)Nc1ccc(Cl)cc1NS(=O)(=O)c1cc(C(C)(C)C)ccc1OCCOCCOCCO2 | > 100 | > 100 | > 100 | 28 | – | > 100 | > 100 | – | – | – | – | – | – | – | – | – | – | – | – | –
Cc1cccc(C2=C/C(=C(\SS/C(C(=O)c3ccc(OCC(=O)O)c(Cl)c3Cl)=C3\C=C(c4cccc(C)c4)SS3)C(=O)c3ccc(OCC(=O)O)c(Cl)c3Cl)SS2)c1 | 37.7 | > 75 | 52.9 | > 70.2 | 41.4 | > 85.6 | 14.3 | – | – | – | – | – | – | – | – | – | – | – | – | –
CCC1CN2CCc3cc(OC)c(OC)cc3C2CC1CC1c2cc(OC)c(OC)cc2CCN1C(=O)C1CCCN1 (stereo not given) | > 100 | > 100 | > 100 | 87.9 | > 100 | > 100 | 69.4 | – | – | – | – | – | – | – | – | – | – | – | – | –
COc1cccc(/C=N/[N-]C(=O)c2ccncc2)c1[O-].COc1cccc(/C=N/[N-]C(=O)c2ccncc2)c1[O-].[O]=[U](=[O])([OH2+])[OH2+] | 27.7 | > 100 | > 100 | > 100 | 48 | > 54.7 | 40.8 | 3.79 | 30.7 | 36.3 | – | – | – | – | 4.4 | 5.86 | 4.34 | > 34200 | – | –
N#CCCN1C/C(=C/c2ccc(Br)cc2)C(=O)/C(=C/c2ccc(Br)cc2)C1 | 3.37 | 1.24 | – | > 100 | > 100 | – | 1.58 | 1.76 | 0.338 | – | 0.764 | 10.4 | 1510 | 7.54 | 0.262 | – | 0.409 | 2690 | – | –
O=C1CCCN1c1ccccc1I(=O)=O | > 100 | > 100 | > 100 | > 100 | > 100 | > 100 | > 100 | > 100 | > 100 | > 100 | > 100 | > 100 | – | – | > 100 | > 100 | > 100 | > 100000 | > 100000 | > 100
NC(=O)C(=O)CC(=O)c1ccccc1NC1=CC(=O)C(=O)c2ccccc21 | > 100 | > 100 | > 100 | > 100 | > 100 | – | > 100 | – | – | – | – | – | – | – | – | – | – | – | – | –
Nc1nc(-c2ccc(Cl)c([N+](=O)[O-])c2)cs1 | > 100 | > 100 | > 100 | > 100 | > 100 | > 100 | > 100 | – | – | – | – | – | – | – | – | – | – | – | – | –
Nc1ccccc1C(=O)/C=C/c1c(O)ccc2ccccc12 | > 100 | > 100 | > 100 | > 100 | > 100 | > 100 | > 100 | – | – | – | – | – | – | – | – | – | – | – | – | –
Cn1cc(-c2csc(-c3cn(CCCCN4CCCCC4)c4ccccc34)n2)c2cccnc21 | 3.03 | 3.1 | – | 4.04 | – | 3.06 | – | 1.67 | 1.58 | – | – | – | 1610 | 3.03 | – | 1.64 | – | 1960 | 1750 | 3.2
CC1CC(O)C(=O)C(O[C@@H]2C[C@@H]3CC[C@@H]4[C@H](CC[C@]5(C)C(C6=CC(=O)OC6)CC[C@]45O)[C@@]3(C=O)C[C@H]2O)O1 (stereo not given in full) | 0.0406 | 0.171 | 0.44 | – | 0.246 | 0.149 | < 0.0486 | – | – | – | – | 0.152 | – | < 0.0424 | – | – | – | – | – | 0.0237
COC(=O)/C(=N/O)C(C(=O)C=C(C)C)C(=O)C(=O)Nc1nc2ccc([N+](=O)[O-])cc2s1 (stereo not given) | 67.1 | > 100 | > 100 | > 100 | > 100 | > 100 | > 100 | – | – | – | – | – | – | – | – | – | – | – | – | –
O=[N+]([O-])c1cccc(C2=NOC(C3CCCCC3)C2)c1 (stereo not given) | > 100 | > 100 | > 100 | > 100 | – | > 100 | > 100 | – | – | – | – | – | – | – | – | – | – | – | – | –
CC1=NN(C(=O)CC(=O)Nc2ccccc2F)C(=O)C1N=Nc1ccccc1[N+](=O)[O-] (stereo not given) | – | > 100 | > 100 | > 100 | > 100 | > 100 | > 100 | – | – | – | – | – | – | – | – | – | – | – | – | –
Cc1ccc(C)c(N2C/C(=N\NC(=O)CC#N)C(c3nc4ccccc4s3)C(=O)C2=O)c1 (stereo not given) | > 100 | > 100 | > 100 | > 100 | – | > 100 | > 100 | – | – | – | – | – | – | – | – | – | – | – | – | –
Cc1ccccc1C1=[N+]([O-])c2ccc(Cl)cc2C1=O | 25.5 | 20.3 | 27.1 | – | 9.37 | 29.1 | 32 | – | – | – | – | – | – | – | – | – | – | – | – | –
